Measurements reported in patent US20260226037A1, “MICROTUBULE TARGETING AGENTS” (ARIEL SCIENTIFIC INNOVATIONS LTD., priority 2022, published 2026).

Columns and labels:
MCF7 cells = experiment: XTT cytotoxicity, MCF7; assay type: cell-based; settings: Homo sapiens; MCF7, breast adenocarcinoma, non-resistant
How it was run: (§1)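 Cells are exposed to compound and viability is scored by XTT.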

RPMI 8226 cells = experiment: XTT cytotoxicity, RPMI 8226; assay type: cell-based; settings: Homo sapiens, RPMI-8226
How it was run: as §1

MES-SA cells = experiment: XTT cytotoxicity, MES-SA; assay type: cell-based; settings: Homo sapiens, poorly differentiated uterine sarcoma, non-resistant
How it was run: as §1

[1] = Xenograft murine myeloma model, body weight and toxicity signs; assay type: in vivo; settings: during the experiment
Experimental: In vivo anti-cancer efficacy of the molecules was evaluated in a xenograft murine myeloma model. Male SCID mice (6-8 weeks old) were maintained in accordance with Institutional Animal Care Use Committee guidelines. Mice were housed in the Animal Research Facility of Ariel University and experiments were performed in accordance with approved protocols. During the experiment, RPMI8226 myeloma cells in exponential growth were harvested from culture, washed three times with sterile PBS, counted and resuspended in sterile PBS (1.5×10^7cells mouse/0.1 ml PBS) and subcutaneously injected on the right flank of male C.B-17/IcrHsd-Prkdc-scid, […] mice. After two weeks of cells injection, when tumors reached a size between 30-60 mm3, mice were assigned into different groups (n=3-5) and started receiving treatment. Body weights were determined twice weekly along with tumor volume {V=[length×(width)2]/2}measurements using electronical caliper. Mice were sacrificed when mean tumor volume of vehicle treated group reached 1500 mm3, or mice appeared moribund to prevent unnecessary morbidity.
The weight of the tumors was measured at the end of the experiment and expressed as mean tumor weight per group. Body weight is expressed as mean body mice weight per group.

RPMI-LR5 cells = experiment: XTT cytotoxicity, RPMI-LR5; assay type: cell-based
How it was run: as §1

RPMI-DOX40 cells = experiment: XTT cytotoxicity, RPMI-DOX40; assay type: cell-based
How it was run: as §1

[2] = test system: colchicine binding site on tubulin protein; experiment: EBI competition assay, RPMI-8226 cells; assay type: cell-based; settings: RPMI-8226 living cells
RPMI-MR20 cells = experiment: XTT cytotoxicity, RPMI-MR20; assay type: cell-based
How it was run: as §1

MES-SA/DX5 cells = experiment: XTT cytotoxicity, MES-SA/DX5; assay type: cell-based
How it was run: as §1

MM1.R cells = experiment: XTT cytotoxicity, MM1.R; assay type: cell-based
How it was run: as §1

RPMI8226 cells = experiment: Cell cycle distribution by flow cytometry; assay type: cell-based; settings: 6 hours; IC50, IC50x2.5 and IC50x5 concentrations
Experimental: Cell cycle arrest is a shared consequence of MTAs treatment. The effects of cell cycle distribution were determined in RPMI8226 cells treated for 6 and 18 hours with a range of concentrations of the molecules. The cells were stained with propidium iodide and cell cycle distribution was measured using a cytoFLEX flow cytometer.

MCF7-VP cells = experiment: XTT cytotoxicity, MCF7-VP; assay type: cell-based
How it was run: as §1

MM1.S cells = experiment: XTT cytotoxicity, MM1.S; assay type: cell-based; settings: Homo sapiens
How it was run: as §1

NALM6 cells = experiment: XTT cytotoxicity, NALM6; assay type: cell-based; settings: Homo sapiens, NALM-6
RPMI8226 myeloma cells = experiment: Xenograft murine myeloma model, antitumor efficacy; assay type: in vivo, mice
Experimental: In vivo anti-cancer efficacy of the molecules was evaluated in a xenograft murine myeloma model. Male SCID mice (6-8 weeks old) were maintained in accordance with Institutional Animal Care Use Committee guidelines. Mice were housed in the Animal Research Facility of Ariel University and experiments were performed in accordance with approved protocols. […] Mice were sacrificed when mean tumor volume of vehicle treated group reached 1500 mm3, or mice appeared moribund to prevent unnecessary morbidity. Mean tumor volume represents the average of tumor volume in each treatment group during the experiment. The weight of the tumors was measured at the end of the experiment and expressed as mean tumor weight per group. Body weight is expressed as mean body mice weight per group. The individual relative tumor volume (RTV) was defined as Vx/V1, where Vx is the mean tumor volume in mm3 at a given time and V1 at the start of treatment. Relative tumor volume is determined by calculating RTV (%) (mean RTV of treated group)/(mean RTV of control group)). Relative tumor volume inhibition is determined by calculating RTVI (%) (1-RTV %)

N6/ADR cells = experiment: XTT cytotoxicity, N6/ADR; assay type: cell-based

Cc1c(C(=O)OCCCCN)oc2c1C(=O)CC(c1ncco1)C2.Cl (stereo not drawn) [SMS228, 4-((3-methyl-6-(oxazol-2-yl)-4-oxo-4,5,6,7-tetrahydrobenzofuran-2-carbonyl)oxy)butan-1-aminium chloride] showed an IC50 (MCF7 cells) of 8810 nM, an IC50 (RPMI 8226 cells) of 1530 nM and an IC50 (MES-SA cells) of 9520 nM. The “body weight and other signs of potential toxicity” value ([1]; 30 mg/kg subcutaneously) was “No significant changes in body weight or other signs of potential toxicity”, the “body weight and other signs of potential toxicity” value ([1]; intraperitoneally) was “No significant changes in body weight or other signs of potential toxicity” and the IC50 (RPMI-LR5 cells) was 1300 nM. For the same compound, the “IC50 ratio between resistant and non-resistant cells” value (RPMI-LR5 cells; RPMI-LR5 / RPMI 8226) was 0.847, the IC50 (RPMI-DOX40 cells) was 1310 nM and the “IC50 ratio between resistant and non-resistant cells” value (RPMI-DOX40 cells; RPMI-DOX40 / RPMI 8226) was 0.853. The “prevention of covalent binding of EBI to the colchicine binding site” value [2] was “did not prevent the covalent binding of EBI to the colchicine binding site”, the IC50 (RPMI-MR20 cells) was 2230 nM and the “IC50 ratio between resistant and non-resistant cells” value (RPMI-MR20 cells; RPMI-MR20 / RPMI 8226) was over 1.454. For the same compound, the IC50 (MES-SA/DX5 cells; Homo sapiens, MES-SA/DX5, uterine sarcoma, P-gp overexpression) was 7410 nM, the “IC50 ratio between resistant and non-resistant cells” value (MES-SA/DX5 cells; MES-SA/DX5 / MES-SA) was 0.778 and the “IC50 ratio between resistant and non-resistant cells” value (MM1.R cells; MM1.R / MM1.S) was over 0.406. The IC50 (MM1.R cells; MM.1R) was over 1800 nM, the cell cycle arrest (RPMI8226 cells) was “cell cycle arrest in G2M phase” and the IC50 (MCF7-VP cells; Homo sapiens, MCF7-VP, breast adenocarcinoma, MRP overexpression) was 12300 nM. The “IC50 ratio between resistant and non-resistant cells” value (MCF7-VP cells; MCF7-VP / MCF7) was 1.400, the IC50 (MM1.S cells) was 4430 nM and the IC50 (NALM6 cells) was 350 nM. The “Relative tumor volume inhibition” value (RPMI8226 myeloma cells; 15 mg/kg intraperitoneally, after 21 days) was 20%, the “Relative tumor volume inhibition” value (RPMI8226 myeloma cells; 30 mg/kg intraperitoneally, after 21 days) was 23% and the “growth inhibition rate (tumor weight at end of experiment)” value (RPMI8226 myeloma cells; 30 mg/kg subcutaneously) was 70%. For the same compound, the “Relative tumor volume inhibition” value (RPMI8226 myeloma cells; 30 mg/kg subcutaneously, after 19 days) was 45%, the “tumor volume lower in the treated group vs vehicle” value (RPMI8226 myeloma cells; 30 mg/kg subcutaneously, beginning of the experiment) was 56% and the “tumor volume lower in the treated group vs vehicle” value (RPMI8226 myeloma cells; 30 mg/kg subcutaneously, day 21) was 76%. For the same compound, the “Relative tumor volume inhibition” value (RPMI8226 myeloma cells; 50 mg/kg intraperitoneally, after 21 days) was 42%, the “decrease of tumor volume as compared to vehicle at the same day” value (RPMI8226 myeloma cells; 50 mg/kg intraperitoneally, day 7 to 19) was 30% and the “decrease of tumor volume as compared to vehicle at the same day” value (RPMI8226 myeloma cells; 50 mg/kg intraperitoneally, day 21) was 40%. For the same compound, the “growth inhibition rate (tumor weight at end of experiment)” value (RPMI8226 myeloma cells; intraperitoneally) was 44%, the IC50 (N6/ADR cells) was 360 nM and the “IC50 ratio between resistant and non-resistant cells” value (N6/ADR cells; N6/ADR / NALM6) was 1.029.
